Test results taken from patent US8993558B2, “Compositions comprising a calcium channel blocker or a calmodulin blocker for use in the removal of hyperplastic skin lesions” (priority 2008, dated 2015).
Where a name gives a salt, the structure may show the parent alone.

Key:
genital warts = assay: Topical treatment of genital (veneral) warts in patients; type: in vivo, human
Experimental: (§1) A person applied 0.1 ml of Trifluoperazine Topical Gel 30 mg/ml twice daily topically to several genital warts and a skin tag in the right axillary area.
A person applied 0.1 ml of Diltiazem supplied in 3 ml syringes with removable caps dissolved at a concentration of 100 mg/ml in an ointment twice daily topically to several genital warts.

plantar wart = assay: Topical treatment of plantar warts in patients
Experimental: The warts were 2-5 mm in diameter. The patient was instructed to apply the cream 2-3 times per day to the three plantar warts, Patient used the medication regularly for approximately 4 weeks.
A mixture of Diltiazem dissolved at a concentration of 100 mg/ml in an ointment was applied in small amounts directly to a single small 3 mm diameter plantar wart on sole under the 1st metatarsal-phallangeal joint on the left foot of a person. The patient applied the cream to the gauze pad of a bandage and then taped the bandage over the sole of the foot so that the Diltiazem 100 mg/ml ointment was in contact with the wart. The bandage was replaced daily after showering and this was continued for six weeks.
A person applied 0.1 ml of Trifluoperazine Topical Gel 30 mg/ml twice daily topically to a approximately […] plantar wart that was large enough to make walking painful.

skin tag = assay: Treatment of skin tags in patients (injection or topical); type: in vivo, human
Experimental: A person had multiple skin tags around their neck where they wore a gold necklace. A mixture of Diltiazem dissolved at a concentration of 100 mg/ml in an ointment was given to the patient with instructions to apply the ointment 1-2 times per day in small amounts directly to the skin tags.
as §1

callouses = assay: Topical treatment of callouses in patients; type: in vivo, human
Experimental: A person had thick painful callouses over the lateral aspect of the 1st metatarsal-phallangeal joint on both feet. A mixture of Diltiazem dissolved at a concentration of 100 mg/ml in an ointment was given to the patient with instructions to apply the ointment 2-3 times per day in small amounts directly to only the callous locate on the 1st metatarsal-phallangeal joint of the left foot, and specifically not to use the ointment on the right foot.
A recreational tennis player had bilateral thickened calluses over the right and left 5th distal metatarsal head of both feet. These callouses were causing their significant pain and disability when they played tennis. The patient was treated with Trifluoperazine and Felodipine impregnated bandages.
Initially a water-proof bandage on which the mixture of Trifluoperazine 30 mg/ml Gel was applied to the adsorbent pad of the bandage with the pad being sized to cover the thickest area of the callous over the was right 5th distal metatarsal head. The pad of the waterproof bandage was applied to the callous and patient was instructed to replace the bandage 1-2 times per day with a new Trifluoperazine impregnated bandage after each shower/bath.
The patient was then given a one month supply of water-proof bandages on which the mixture of Felodipine 100 mg/ml ointment had been applied to the adsorbent pad of the bandage with the pad being sized to cover the thickest area of the callous over the was on the left 5th distal metatarsal head. The pad of the waterproof bandage was applied to the callous and patient was instructed to replaced the bandage 1-2 times per day with a new Felodipine impregnated bandage after each shower/bath.

P-glycoprotein = conditions: hepatocyte canalicular membrane; cited from earlier work
[1] = system: outwardly-rectifying chloride channel; conditions: 50 microM; cited from earlier work
psoriatic plaques = assay: Topical treatment of psoriatic plaques; type: in vivo, human
keloid [2] = assay: Topical treatment of keloids in patients; type: in vivo, human; conditions: for keloid appearance: Example 17: 100 mg/ml ointment, keloid over mastoid process (Felodipine right, Diltiazem left); for keloid relapse: Example 17: follow up at 6 and 9 months
Experimental: A person had keloids that had formed over several areas of the donor site scar from a previous hair transplant several years ago over the occipital area of the scalp from mastoid process to mastoid process. The keloids over the mastoid process on right side were initially treated with Felodipine 100 mg/ml ointment. The patient had been given instructions to apply the Felodipine 100 mg/ml ointment several times per day to the right side only and the patient was seen weekly in follow up.

corn = conditions: person
keloid [3] = assay: Topical treatment of keloids in patients; type: in vivo, human; conditions: Example 17: applied for two weeks twice daily to the donor surgical sites
[4] = Example 18: Topical Gel 30 mg/ml, four weeks of use, follow up a month later
[5] = Example 13: 0.1 ml Topical Gel 30 mg/ml twice daily, three weeks

SMILES: CN1CCN(CCCN2c3ccccc3Sc3ccc(C(F)(F)F)cc32)CC1.Cl.Cl [Trifluoperazine, 10-[3-(4-Methylpiperazin-1-yl)propyl]-2-trifluoromethyl-phenothiazine dihydrochloride]
- genital wart clearing (genital warts; Example 18: 0.1 ml Topical Gel 30 mg/ml twice daily, person, three weeks): significant clearing
- genital wart clearing (genital warts; [4]): complete clearing
- plantar wart clearing (plantar wart; Example 13: 0.1 ml Topical Gel 30 mg/ml twice daily, person, three weeks): significant clearing
- irritation or erythema around the lesion (plantar wart; [5]): no irritation or erythema
- pain on walking and weight bearing (plantar wart; [5]): weight bearing without pain
- plantar wart outcome (plantar wart; Example 13: Topical Gel 30 mg/ml, stopped for the past two weeks, six weeks follow up): the wart was no longer visible
- plantar wart recurrence (plantar wart; Example 13: gel not used for over 3 months, seen at 4 months): no recurrence of the wart
- skin tag clearing (skin tag; Example 18: 0.1 ml Topical Gel 30 mg/ml twice daily, right axillary area, three weeks): significant clearing
- skin tag clearing (skin tag; [4]): complete clearing
- callous softness and thickness (callouses; Example 14: 30 mg/ml Gel impregnated bandage 1-2 times per day, right foot, person, within one week): a softening and a reduction in the thickness of the callous
- pain or disability (callouses; Example 14: 30 mg/ml Gel impregnated bandage, right foot (untreated left side still painful), after two weeks): no longer having any pain or disability
- callous thickness (callouses; Example 14: 30 mg/ml Gel impregnated bandage, right foot, after two weeks): had thinned
- pain while playing tennis (callouses; Example 14: 30 mg/ml Gel impregnated bandage, right foot, within one week): reduced pain while playing tennis

SMILES: COc1cccc2c1C(=O)c1c(O)c3c(c(O)c1C2=O)C[C@@](O)(C(C)=O)C[C@@H]3O[C@H]1C[C@H](N)[C@H](O)[C@H](C)O1 [daunorubicin]
- transport of permanently charged amphiphilic cations (P-glycoprotein): inhibited
- block of outwardly-rectifying chloride channel [1]: blocked

SMILES: COc1ccc([C@@H]2Sc3ccccc3N(CCN(C)C)C(=O)[C@@H]2OC(C)=O)cc1 [Diltiazem, (+)-cis-3-Acetoxy-5-(2-dimethylaminoethyl)-2,3-dihydro-2-(4-methoxyphenyl)-1,5-benzothiazapin-4(5H)-one hydrochloride]
- genital wart clearing (genital warts; Example 19: 100 mg/ml ointment, follow up at 5 weeks): complete clearing of the genital warts
- genital wart clearing (genital warts; Example 19: 0.1 ml of 100 mg/ml ointment twice daily, person, three weeks): significant clearing
- plantar wart size (plantar wart; Example 5: 100 mg/ml ointment on bandage daily, 3 mm wart, person, after about two weeks): dramatically shrunk in size
- plantar wart outcome (plantar wart; Example 5: 100 mg/ml ointment on bandage daily, person, six weeks): not detected
- plantar wart recurrence (plantar wart; Example 5: person, reassessed after 3 months): no evidence of recurrence of the plantar wart
- skin tags remaining (skin tag; Example 9: 100 mg/ml ointment 1-2 times per day, multiple neck skin tags, person, one month): only a few small skin tags remaining
- skin tag outcome (skin tag; Example 9: 100 mg/ml ointment off and on, person, after 3 months): completely cleared
- callous thickness (callouses; Example 6: 100 mg/ml ointment 2-3 times per day, left foot only (right foot control unchanged), person, three weeks): dramatic reduction in the thickness of the callous
- psoriatic plaque clearing (psoriatic plaques; Example 11: 100 mg/ml ointment, left leg): significant clearing
- keloid appearance (keloid [2]; person, after 1 week): noticeable softening
- keloid appearance (keloid [2]; after 2 weeks): noticeable flattening and continued softening
- keloid appearance (keloid [2]; by six weeks): flattened to the level of the adjoining skin
- keloid relapse (keloid [2]): no relapse of the initial cosmetic improvement
- pain associated with wearing shoes (corn; Example 7: 100 mg/ml ointment 2-3 times per day, one month): significant reduction in pain
- corn thickness (corn; Example 7: 100 mg/ml ointment 2-3 times per day, second toe, one month): noticeable reduction in the thickness of the corn
- corn outcome (corn; Example 7: 100 mg/ml ointment off and on, after 6 months): the corn had dissappeared
- new keloid formation at FUE graft donor sites (keloid [3]): no new keloid formation

SMILES: CCOC(=O)C1=C(C)NC(C)=C(C(=O)OC)C1c1cccc(Cl)c1Cl (stereo not drawn) [Felodipine, Ethyl methyl 4-(2,3-dichlorophenyl)-1,4-dihydro-2,6-dimethylpyridine-3,5-dicarboxylate]
- pain when running and playing tennis (callouses; Example 14: 100 mg/ml ointment impregnated bandage 1-2 times per day, left foot, after 3 weeks): pain free on both sides
- psoriatic plaque clearing (psoriatic plaques; Example 11: Topical ointment 100 mg/ml, left hand and wrist): significant clearing
- keloid appearance (keloid [2]; person, after 1 week): noticeable softening
- keloid appearance (keloid [2]; after 2 weeks): noticeable flattening and continued softening
- keloid appearance (keloid [2]; by six weeks): flattened to the level of the adjoining skin
- keloid relapse (keloid [2]): no relapse of the initial cosmetic improvement
- new keloid formation at FUE graft donor sites (keloid [3]): no new keloid formation

SMILES: CC[C@]1(O)C[C@@H]2CN(CCc3c([nH]c4ccccc34)[C@@](C(=O)OC)(c3cc4c(cc3OC)N(C)[C@H]3[C@@](O)(C(=O)OC)[C@H](OC(C)=O)[C@]5(CC)C=CCN6CC[C@]43[C@@H]65)C2)C1 [vinblastine]
- block of outwardly-rectifying chloride channel [1]: blocked

SMILES: C=C[C@H]1C[N@@]2CC[C@H]1C[C@@H]2[C@@H](O)c1ccnc2ccc(OC)cc12 [quinidine]
- transport of permanently charged amphiphilic cations (P-glycoprotein): inhibited

SMILES: COc1cc2c(c(OC)c1OC)-c1ccc(OC)c(=O)cc1[C@@H](NC(C)=O)CC2 [colchicine]
- block of outwardly-rectifying chloride channel [1]: blocked
